Measured values: patent publication US20100130474A1 (WYETH, priority 2008, published 2010)
Counter-ions that a name gives are not always drawn. Each block holds one compound with its values, some of them ahead of it.

How the values were obtained:
[1] = hygroscopicity / Dynamic Vapor Sorption (DVS) of hydrochloride salt crystal forms; format: physicochemical; conditions: for Hygroscopicity: hydrochloride salt of Example 4, result in words; for water uptake: at RH 50%; for water absorbed eventually: RH of 90%
Description: Differential scanning calorimetry data were collected for each solid form achieved using a DSC (TA instruments, model Q1000) under the following parameters: 50 mL/min purge gas (N2); scan range 40 to 200° C., scan rate 10° C./min. Thermogravimetric analysis data were collected using a TGA instruments (Mettler Toledo, model TGA/SDTA 851e) under the following parameters: 40 ml/min purge gas (N2); scan range 30 to 250° C., scan rate 10° C./min. X-ray data were acquired using an X-ray powder diffractometer (Bruker-axs, model D8 advance) having the following parameters: voltage 40 kV, current 40.0 mA, scan range (2) 5 to 30°, scan step size 0.01°, total scan time 33 minutes, VANTEC detector, and antiscattering slit 1 mm. FIGS. 1-7 show characterization data for hydrochloride salt forms.
Dynamic Vapor Sorption (DVS) was done at 26° C.

rat-alpha 7-nAChR = target: T1, rat-alpha 7-nAChR (Rattus norvegicus, UniProt Q05941); assay: functional FLIPR assay, GH4C1 cells stably expressing alpha7 nAChR (intracellular calcium); format: cell-based; conditions: alpha7 nAChR stably expressed in GH4C1 cells; agonist concentration range 0.001 to 30 microM
T1 construct: expressed in transfected cells

[2] = solubility in water of hydrochloride salt crystal forms; format: physicochemical; conditions: result in words

T1 sequence (Q05941 23-502): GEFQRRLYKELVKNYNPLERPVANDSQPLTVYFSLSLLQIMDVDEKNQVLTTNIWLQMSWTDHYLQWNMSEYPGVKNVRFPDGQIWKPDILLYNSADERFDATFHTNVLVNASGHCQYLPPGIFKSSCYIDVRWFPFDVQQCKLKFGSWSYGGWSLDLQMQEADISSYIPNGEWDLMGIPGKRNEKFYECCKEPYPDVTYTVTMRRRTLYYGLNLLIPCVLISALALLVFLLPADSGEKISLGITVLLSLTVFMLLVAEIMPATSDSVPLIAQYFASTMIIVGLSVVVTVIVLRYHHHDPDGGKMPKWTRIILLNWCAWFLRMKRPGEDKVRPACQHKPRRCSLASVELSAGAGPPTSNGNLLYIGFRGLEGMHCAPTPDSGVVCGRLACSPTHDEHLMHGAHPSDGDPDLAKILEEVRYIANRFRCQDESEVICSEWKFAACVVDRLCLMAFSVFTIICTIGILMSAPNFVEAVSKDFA

SMILES: COc1ccc(-c2cc(NC(=O)CCCCN3CCCN(C(C)=O)CC3)[nH]n2)cc1 (as salt: hydrochloric acid salt) [5-(4-Acetyl-[1,4]diazepan-1-yl)-pentanoic acid [5-(4-methoxy-phenyl)-2H-pyrazol-3-yl]-amide]
melting point: 185 °C

SMILES: COc1ccc(-c2cc(NC(=O)CCCCN3CCCN(C(C)=O)CC3)n[nH]2)cc1.Cl [5-(4-acetyl-[1,4]diazepan-1-yl)-pentanoic acid [5-(4-methoxy-phenyl)-1H-pyrazol-3-yl]-amide hydrochloride]
Hygroscopicity [1]: extreme hygroscopicity

SMILES: COc1ccc(-c2cc(NC(=O)CCCCN3CCCN(C(C)=O)CC3)[nH]n2)cc1 [Crystal Form III, 5-(4-Acetyl-[1,4]diazepan-1-yl)-pentanoic acid [5-(4-methoxy-phenyl)-2H-pyrazol-3-yl]-amide]
water uptake [1]: (10% water
Hygroscopicity [1]: Hygroscopic

SMILES: C[N+]1(C)CCN(c2ccccc2)CC1 [DMPP]
EC50 (rat-alpha 7-nAChR): 980 ± 470 nM

Second part, the compound after the results:

melting point: 132 to 133 °C
SMILES: COc1ccc(-c2cc(NC(=O)CCCCN3CCCN(C(C)=O)CC3)[nH]n2)cc1 (as salt: hydrochloride) [Example 4, 5-(4-Acetyl-[1,4]diazepan-1-yl)-pentanoic acid [5-(4-methoxy-phenyl)-2H-pyrazol-3-yl]-amide]

water uptake [1]: (7% at RH
Hygroscopicity [1]: Hygroscopic
SMILES: COc1ccc(-c2cc(NC(=O)CCCCN3CCCN(C(C)=O)CC3)[nH]n2)cc1 [Crystal Form V, 5-(4-Acetyl-[1,4]diazepan-1-yl)-pentanoic acid [5-(4-methoxy-phenyl)-2H-pyrazol-3-yl]-amide]

solubility in water [2]: considerably soluble
relative humidity at which the form picks up moisture ([1]; DVS at 26° C.): about 50%
water absorbed eventually ([1]; DVS at 26° C.): up to 2%
moisture gain ([1]; at 70-100% RH, lost without significant hysteresis on decreasing RH): at least 12%
moisture gain ([1]; equilibrated at RH less than or equal to 70%): about 0.5%
Hygroscopicity [1]: relatively non-hygroscopic
SMILES: COc1ccc(-c2cc(NC(=O)CCCCN3CCCN(C(C)=O)CC3)[nH]n2)cc1 [Form I, 5-(4-acetyl-1,4-diazepan-1-yl)-N-(5-(4-methoxyphenyl)-1H-pyrazol-3-yl)pentanamide]

solubility in water [2]: considerably soluble
relative humidity at which the form picks up moisture ([1]; DVS at 26° C.): about 20%
water held at low RH ([1]; RH 0%, DVS at 26° C.): 2%
water absorbed eventually ([1]; DVS at 26° C.): up to 7%
Hygroscopicity [1]: non-hygroscopic
SMILES: COc1ccc(-c2cc(NC(=O)CCCCN3CCCN(C(C)=O)CC3)[nH]n2)cc1 [Form II, 5-(4-acetyl-1,4-diazepan-1-yl)-N-(5-(4-methoxyphenyl)-1H-pyrazol-3-yl)pentanamide]
